From patent publication US8399465B2, “Compounds with two fused bicyclic heteroaryl moieties as modulators of leukotriene A4 hydrolase” (Janssen Pharmaceutica NV, priority 2009, dated 2013)
Where a name gives a salt, the structure may show the parent alone. Read-outs that look alike come from different tables or passages of the source.

Assays:
[1] = biological target: T1, recombinant human LTA4 hydrolase (rhLTA4H) (Homo sapiens, UniProt P09960); experiment: Recombinant human LTA4 hydrolase assay for LTA4 hydrolase inhibitor activity; assay type: biochemical; settings: rhLTA4H, LTB4 by immunoassay; single determination or average of two or more; mark after value = form tested: ′ free base, ″ hydrochloride, ^ formate; read-out: IC50
T1 construct: made in house; host or cells: Spodoptera frugiperda (Sf-9) cells, baculovirus (pFastBac1)
T1 sequence (P09960 1-611): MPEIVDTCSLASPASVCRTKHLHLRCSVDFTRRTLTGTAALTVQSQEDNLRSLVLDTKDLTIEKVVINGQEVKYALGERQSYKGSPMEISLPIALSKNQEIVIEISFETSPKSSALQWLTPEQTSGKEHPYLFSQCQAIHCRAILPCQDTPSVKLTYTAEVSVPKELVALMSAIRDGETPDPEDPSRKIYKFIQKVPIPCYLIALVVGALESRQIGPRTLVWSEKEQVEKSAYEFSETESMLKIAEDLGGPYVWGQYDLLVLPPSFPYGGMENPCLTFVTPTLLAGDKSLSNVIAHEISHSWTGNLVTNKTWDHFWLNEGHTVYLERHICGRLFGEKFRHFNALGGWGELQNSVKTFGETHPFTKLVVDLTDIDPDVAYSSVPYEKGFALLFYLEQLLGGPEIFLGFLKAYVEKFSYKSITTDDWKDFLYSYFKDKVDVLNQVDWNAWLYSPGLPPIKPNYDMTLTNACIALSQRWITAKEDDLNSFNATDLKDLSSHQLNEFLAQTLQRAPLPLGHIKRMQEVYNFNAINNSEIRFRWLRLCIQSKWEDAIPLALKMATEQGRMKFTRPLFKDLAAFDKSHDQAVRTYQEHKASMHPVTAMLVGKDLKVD
Method in brief: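 Baculovirus/Sf-9-expressed human LTA4H (10 ng) was preincubated 10 min at rt with compound in assay buffer (10% DMSO in compound dilution), then reacted 30 min at rt with LTA4 free acid made from its methyl ester. LTB4 produced was measured by ELISA after dilution; IC50 from non-linear regression, single or averaged determinations.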

[2] = system: LTB4 production in murine blood (LTA4H); experiment: LTB4 production by calcium ionophore-stimulated murine blood for LTA4H inhibitor activity; assay type: cell-based, CD-1 mice; settings: Mus musculus
Method in brief: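 Heparinized blood from CD-1 mice was preincubated with compound for 15 min at 37° C, then stimulated with calcium ionophore A23187 (final 7 μg/mL) for 30 min. Centrifugation stopped the reaction, and LTB4 in the supernatant was measured by enzyme immunoassay. Values are single determinations or means of two or more.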

[3] = system: arachidonic acid-induced neutrophil influx in murine ear tissue; experiment: Murine arachidonic acid-induced inflammation model: neutrophil influx (myeloperoxidase) in ear; assay type: in vivo, Balb/c mice; settings: Mus musculus, read-out: % Inh. MPO
Method: (§1) Assay 3: Murine Arachidonic Acid-Induced Inflammation Model
(§2) LTA4H inhibitor compounds of the present invention were dissolved in 20% cyclodextran/H2O at a concentration of 3 mg/mL. The solutions were administered by oral gavage to female Balb/c mice weighing approximately 20 grams each (0.2 mL per mouse, 30 mg of LTA4H inhibitor compound per kg). Sixty minutes after being administered an LTA4 inhibitor, each mouse received topical application of 20 μL of arachidonic acid (100 mg/mL in acetone) to the left ear and 20 μL of acetone only to the right ear. After 3 h, the mice were sacrificed, blood was withdrawn in heparinized syringes, and 8 mm ear biopsies were taken. Ear biopsies were weighed to determine edema and then frozen at −80° C. until needed for determination of neutrophil influx.
Neutrophil influx was quantified by measuring the activity of myeloperoxidase (MPO), a neutrophil-specific enzyme. […] Debris was removed by centrifugation at 14000×g for 10 min. […] The microtiter plate contents were held at room temperature until the sample with the highest concentration of MPO reached an absorbance value of 0.4 at 650 nm. The reaction was stopped by addition of 50 μL 1 M H2SO4 to each sample well, and the myeloperoxidase activity in each sample was determined from the absorbance at […]. The background value from the right ear, treated only with acetone, was subtracted from that for the left ear, treated with arachidonic acid in acetone, for each animal. The percent inhibition of neutrophil influx (% Inh. MPO) by compounds of the invention was determined by comparison to animals treated identically, except that the solution administered by oral gavage was devoid of inhibitor compound. All compounds were assayed in their free base form.

[4] = system: ex vivo calcium ionophore-stimulated LTB4 production in whole blood; experiment: Murine arachidonic acid-induced inflammation model: ex vivo stimulated LTB4 production in blood; set-up: species or system Balb/c mice; settings: Mus musculus; 30 mg/kg oral gavage; blood diluted 1:1, A23187 stimulated ex vivo; percent inhibition of LTB4 production; read-out: % Inh. LTB4
Method: as §1, §2
The microtiter plate contents were incubated for 30 min at 37° C. in a humidified incubator. The reaction was terminated by centrifugation (833×g, 10 min at 4° C.). Supernatants were analyzed for LTB4 by a commercially available enzyme-linked immunoassay (Cayman Chemical Co.) in accordance with the manufacturer's instructions. The percent inhibition of ex vivo stimulated LTB4 production (% Inh. LTB4) was determined by comparison to animals treated identically except that the solution administered by oral gavage was devoid of inhibitor compound.

[5] = murine blood diluted 1 in 15, A23187 stimulated, single determination or average, mark after value = form tested: ′ free base, ″ hydrochloride, ^ formate, read-out: IC50
[6] = 30 mg/kg oral gavage, 60 min before topical arachidonic acid, ear biopsy after 3 h, percent inhibition of neutrophil influx

Row | Compound | IC50 [1] [nM] | IC50 [2, 5] [nM] | inhibition at 30 mg/kg [3, 6] [%] | inhibition at 30 mg/kg [4] [%] | IC50 [2] [nM] | inhibition at 30 mg/kg ([3]; Neutrophil) [%]
1 | O=C(O)C1CCN(Cc2coc3cc(Oc4nc5ccccc5s4)ccc23)CC1 [Example 248, 1-[6-(Benzothiazol-2-yloxy)-benzofuran-3-ylmethyl]-piperidine-4-carboxylic acid formate] | 12 | – | – | 83 | 20 | 90
2 | NC(=O)C1CCN(Cc2cc3ccc(Oc4nc5ncccc5s4)cc3o2)CC1 [Example 116, 1-[6-(Thiazolo[4,5-b]pyridin-2-yloxy)-benzofuran-2-ylmethyl]-piperidine-4-carboxylic acid amide] | 44 | 55 | 66 | 76 | – | –
3 | CC(=O)N1CC2CN(Cc3cc4cc(Oc5nc6ncccc6s5)ccc4o3)CC2C1 (stereo not drawn) [Example 90, 1-{5-[5-(Thiazolo[4,5-b]pyridin-2-yloxy)-benzofuran-2-ylmethyl]-hexahydro-pyrrolo[3,4-c]pyrrol-2-yl}-ethanone] | 35 | 22 | 50 | 61 | – | –
4 | CCOC(=O)[C@@H]1CCCN(Cc2c[nH]c3cc(Oc4nc5ccccc5s4)ccc23)C1 [Example 144, (3R)-1-[6-(Benzothiazol-2-yloxy)-1H-indol-3-ylmethyl]-piperidine-3-carboxylic acid ethyl ester] | 78 | 2440 | – | – | – | –
5 | Clc1ccc2sc3c(c2c1)CN(Cc1c[nH]c2cc(Oc4nc5ncccc5s4)ccc12)CC3 [Example 36, 8-Chloro-2-[6-(thiazolo[4,5-b]pyridin-2-yloxy)-1H-indol-3-ylmethyl]-1,2,3,4-tetrahydro-benzo[4,5]thieno[3,2-c]pyridine formate] | 77 | 423 | – | – | – | –
6 | NC(=O)N1CC2CN(Cc3cc4ccc(Oc5nc6ncccc6s5)cc4o3)CC2C1 (stereo not drawn) [Example 194, 5-[6-(Thiazolo[4,5-b]pyridin-2-yloxy)-benzofuran-2-ylmethyl]-hexahydro-pyrrolo[3,4-c]pyrrole-2-carboxylic acid amide] | 39 | 260 | – | – | – | –
7 | CC(=O)N[C@H]1C[C@H]2CC[C@@H](C1)N2Cc1c[nH]c2cc(Oc3nc4ccccc4s3)ccc12 [Example 13, meso-endo-N-{8-[6-(Benzothiazol-2-yloxy)-1H-indol-3-ylmethyl]-8-aza-bicyclo[3.2.1]oct-3-yl}-acetamide] | 2 | 100 | – | – | – | –
8 | c1cnc2nc(Oc3ccc4cc(CN5CCCCC5)oc4c3)sc2c1 [Example 192, 2-(2-Piperidin-1-ylmethyl-benzofuran-6-yloxy)-thiazolo[4,5-b]pyridine formate] | 43 | – | – | – | 120 | –

Continued by falling IC50 [1], values first:

Row | IC50 [1] [nM] | IC50 [2, 5] [nM] | Compound | inhibition at 30 mg/kg [3, 6] [%] | inhibition at 30 mg/kg [4] [%] | IC50 [2] [nM] | inhibition at 30 mg/kg ([3]; Neutrophil) [%]
9 | 21 | 100 | c1ccc(CNCc2coc3cc(Oc4nc5ncccc5s4)ccc23)cc1 [Example 344, Benzyl-[6-(thiazolo[4,5-b]pyridin-2-yloxy)-benzofuran-3-ylmethyl]-amine] | – | – | – | –
10 | 17 | 21 | c1cnc2nc(Oc3ccc4c(CN5CCOCC5)coc4c3)sc2c1 [Example 156, 2-(3-Morpholin-4-ylmethyl-benzofuran-6-yloxy)-thiazolo[4,5-b]pyridine] | 86 | 91 | – | –
11 | 16 | 79 | C[C@H]1COCCN1Cc1coc2cc(Oc3nc4ncccc4s3)ccc12 [Example 159, (S)-2-[3-(3-Methyl-morpholin-4-ylmethyl)-benzofuran-6-yloxy]-thiazolo[4,5-b]pyridine] | 78 | 83 | – | –
12 | 15 | 79 | OCC1CCN(Cc2c[nH]c3cc(Oc4nc5ccccc5s4)ccc23)CC1 [Example 28, {1-[6-(Benzothiazol-2-yloxy)-1H-indol-3-ylmethyl]-piperidin-4-yl}-methanol] | – | – | – | –
13 | 13 | 250 | c1ccc2sc(Oc3ccc4c(CN5C[C@@H]6C[C@H]5CO6)c[nH]c4c3)nc2c1 [Example 12, (1S,4S)-2-[3-(2-Oxa-5-aza-bicyclo[2.2.1]hept-5-ylmethyl)-1H-indol-6-yloxy]-benzothiazole] | – | – | – | –
14 | 12 | 54 | O=C(O)C1CCN(Cc2coc3cc(Oc4nc5ncccc5s4)ccc23)CC1 [Example 249, 1-[6-(Thiazolo[4,5-b]pyridin-2-yloxy)-benzofuran-3-ylmethyl]-piperidine-4-carboxylic acid] | – | – | – | –
15 | 11 | 13 | CC(=O)N1CC2CN(Cc3coc4cc(Oc5nc6ncccc6s5)ccc34)CC2C1 (stereo not drawn) [Example 211, meso-1-{5-[6-(Thiazolo[4,5-b]pyridin-2-yloxy)-benzofuran-3-ylmethyl]-hexahydro-pyrrolo[3,4-c]pyrrol-2-yl}-ethanone] | 86 | 92 | – | –
16 | 10 | 250 | Fc1cnc2nc(Oc3ccc4c(CN5CCOCC5)c[nH]c4c3)sc2c1 [Example 58, 6-Fluoro-2-(3-morpholin-4-ylmethyl-1H-indol-6-yloxy)-thiazolo[4,5-b]pyridine] | 57 | 84 | – | –
17 | 8 | 49 | COCCN(C)Cc1coc2cc(Oc3nc4ncccc4s3)ccc12 [Example 184, (2-Methoxy-ethyl)-methyl-[6-(thiazolo[4,5-b]pyridin-2-yloxy)-benzofuran-3-ylmethyl]-amine] | 53 | 82 | – | –
18 | 7 | 72 | Fc1ccc(CNCc2coc3cc(Oc4nc5ncccc5s4)ccc23)cc1 [Example 345, (4-Fluoro-benzyl)-[6-(thiazolo[4,5-b]pyridin-2-yloxy)-benzofuran-3-ylmethyl]-amine] | – | – | – | –
19 | 5 | 53 | CC(C)(O)C1CCN(Cc2coc3cc(Oc4nc5ncccc5s4)ccc23)CC1 [Example 218, 2-{1-[6-(Thiazolo[4,5-b]pyridin-2-yloxy)-benzofuran-3-ylmethyl]-piperidin-4-yl}-propan-2-ol] | 98 | 83 | – | –
20 | 5 | 49 | NC(=O)N1C[C@H]2C[C@@H]1CN2Cc1coc2cc(Oc3nc4ncccc4s3)ccc12 [Example 160, (1R,4R)-5-[6-(Thiazolo[4,5-b]pyridin-2-yloxy)-benzofuran-3-ylmethyl]-2,5-diaza-bicyclo[2.2.1]heptane-2-carboxylic acid amide] | 77 | 90 | – | –
